Data: ChEMBL document CHEMBL4229518, “New β-lactam - Tetramic acid hybrids show promising antibacterial activities” (Bioorg Med Chem Lett, 2018)
≈ marks a conversion by molar mass, not a printed value. Calls of active or inactive are those of the source. The rule behind the calls is not given here.

Legend:
[1] = tested on: Escherichia coli; assay: Antimicrobial activity against Escherichia coli isolate SJ 4 after 18 to 20 hrs by microbroth dilution method; format: functional
[2] = tested on: Klebsiella pneumoniae; assay: Antimicrobial activity against Klebsiella pneumoniae isolate SJ 3 after 18 to 20 hrs by microbroth dilution method; format: functional
[3] = tested on: Escherichia coli; assay: Antimicrobial activity against Escherichia coli ATCC 35218 expressing TEM-1 beta lactamases after 18 to 20 hrs by microbroth dilution method; format: functional
[4] = tested on: Escherichia coli; assay: Antimicrobial activity against Escherichia coli isolate SJ 5 after 18 to 20 hrs by microbroth dilution method; format: functional
[5] = tested on: Escherichia coli; assay: Antimicrobial activity against Escherichia coli isolate SJ 6 after 18 to 20 hrs by microbroth dilution method; format: functional
[6] = tested on: Escherichia coli; assay: Antimicrobial activity against Escherichia coli BW25113 after 18 to 20 hrs by microbroth dilution method; format: functional
[7] = tested on: Klebsiella pneumoniae; assay: Antimicrobial activity against Klebsiella pneumoniae isolate SJ 4 after 18 to 20 hrs by microbroth dilution method; format: functional
[8] = tested on: Pseudomonas aeruginosa; assay: Antimicrobial activity against Pseudomonas aeruginosa PAO1 after 18 to 20 hrs by microbroth dilution method; format: functional
[9] = tested on: Klebsiella pneumoniae; assay: Antimicrobial activity against Klebsiella pneumoniae isolate SJ 5 after 18 to 20 hrs by microbroth dilution method; format: functional
[10] = tested on: Proteus mirabilis; assay: Antimicrobial activity against Proteus mirabilis ATCC 25933 after 18 to 20 hrs by microbroth dilution method; format: functional
[11] = tested on: Escherichia coli; assay: Antimicrobial activity against Escherichia coli ATCC 25922 after 18 to 20 hrs by microbroth dilution method; format: functional
[12] = tested on: Escherichia coli; assay: Antimicrobial activity against Escherichia coli isolate SJ 2 after 18 to 20 hrs by microbroth dilution method; format: functional
[13] = tested on: Escherichia coli; assay: Induction of proton motive force collapse in Escherichia coli BW25113 at 100 uM by flow cytometry; format: functional, organism-based
[14] = tested on: Escherichia coli; assay: Antimicrobial activity against Escherichia coli isolate SJ 1 after 18 to 20 hrs by microbroth dilution method; format: functional
[15] = tested on: Klebsiella pneumoniae; assay: Antimicrobial activity against Klebsiella pneumoniae isolate SJ 2 after 18 to 20 hrs by microbroth dilution method; format: functional
[16] = tested on: Escherichia coli; assay: Antimicrobial activity against tolC deficient Escherichia coli JW5503-1 after 18 to 20 hrs by microbroth dilution method; format: functional
[17] = tested on: Klebsiella pneumoniae; assay: Antimicrobial activity against Klebsiella pneumoniae ATCC 33495 after 18 to 20 hrs by microbroth dilution method; format: functional
[18] = tested on: Klebsiella pneumoniae; assay: Antimicrobial activity against Klebsiella pneumoniae isolate SJ 1 after 18 to 20 hrs by microbroth dilution method; format: functional
[19] = tested on: Escherichia coli; assay: Antimicrobial activity against Escherichia coli isolate SJ 3 after 18 to 20 hrs by microbroth dilution method; format: functional
[20] = tested on: Acinetobacter baumannii; assay: Antimicrobial activity against Acinetobacter baumannii ATCC 19606 after 18 to 20 hrs by microbroth dilution method; format: functional; conditions: ATCC 19606 = CIP 70.34 = JCM 6841
[21] = tested on: Streptococcus pyogenes; assay: Antimicrobial activity against Streptococcus pyogenes ATCC 700294 after 18 to 20 hrs by microbroth dilution method; format: functional; conditions: M1 GAS
[22] = tested on: Bacillus subtilis; assay: Antimicrobial activity against Bacillus subtilis ATCC 23857 after 18 to 20 hrs by microbroth dilution method; format: functional
[23] = tested on: Staphylococcus aureus; assay: Potency index, ratio of cefaclor MIC to compound MIC for methicillin-resistant Staphylococcus aureus NRS70; format: functional
[24] = tested on: Enterobacter cloacae; assay: Antimicrobial activity against Enterobacter cloacae ATCC 13047 after 18 to 20 hrs by microbroth dilution method; format: functional; conditions: subsp. cloacae ATCC 13047
[25] = tested on: Enterococcus faecalis; assay: Antimicrobial activity against Enterococcus faecalis ATCC 33186 after 18 to 20 hrs by microbroth dilution method; format: functional
[26] = tested on: Streptococcus pneumoniae; assay: Antimicrobial activity against Streptococcus pneumoniae R6 after 18 to 20 hrs by microbroth dilution method; format: functional
[27] = tested on: Bacillus cereus; assay: Antimicrobial activity against Bacillus cereus ATCC 14579 after 18 to 20 hrs by microbroth dilution method; format: functional
[28] = tested on: Staphylococcus aureus; assay: Potency index, ratio of cefaclor MIC to compound MIC for […] Staphylococcus aureus ATCC 29213; format: functional
[29] = tested on: Staphylococcus aureus; assay: Potency index, ratio of […] MIC to compound MIC for methicillin-resistant Staphylococcus aureus NRS70; format: functional
[30] = tested on: Staphylococcus aureus; assay: Antimicrobial activity against methicillin-susceptible Staphylococcus aureus ATCC 29213 after 18 to 20 hrs by microbroth dilution method; format: functional
[31] = tested on: Bacillus anthracis; assay: Antimicrobial activity against Bacillus anthracis Sterne 34F2 after 18 to 20 hrs by microbroth dilution method; format: functional
[32] = tested on: Staphylococcus aureus; assay: Antimicrobial activity against methicillin-susceptible Staphylococcus aureus NRS70 after 18 to 20 hrs by microbroth dilution method; format: functional
[33] = tested on: Staphylococcus aureus; assay: Potency index, ratio of […] MIC to compound MIC for […] Staphylococcus aureus ATCC 29213; format: functional
[34] = tested on: Stenotrophomonas maltophilia; assay: Antimicrobial activity against Stenotrophomonas maltophilia ATCC 700475 after 18 to 20 hrs by microbroth dilution method; format: functional
[35] = tested on: HepG2; assay: Cytotoxicity against human HepG2 cells; format: cell-based
[36] = tested on: Vero; assay: Cytotoxicity against African green monkey Vero cells; format: cell-based; conditions: Chlorocebus sabaeus

For `CO[C@@]1(NC(=O)CCCC(=O)C2=C(O)[C@@H](CC(C)C)NC2=O)C(=O)N2C(C(=O)O)=C(CSc3nnnn3C)CS[C@@H]21`, which MIC [1] is on record?
Its MIC is over 200 µg/mL.

And the MIC [2]?
The MIC was 50 µg/mL (≈ 82 µM).

And the MIC [3]?
The MIC was 50 µg/mL (≈ 82 µM).

What about the MIC [4] of the same compound?
Its MIC is 200 µg/mL (≈ 328 µM).

What about the MIC [5] of the same compound?
The MIC was over 200 µg/mL.

And the MIC [6]?
The MIC was 50 µg/mL (≈ 82 µM).

What about the MIC [7] of the same compound?
Its MIC is over 200 µg/mL.

What about the MIC [8] of the same compound?
The MIC was over 200 µg/mL.

What about the MIC [9] of the same compound?
Its MIC is 200 µg/mL (≈ 328 µM).

And the MIC [10]?
The MIC was 12.5 µg/mL (≈ 20.5 µM).

What about the MIC [11] of the same compound?
The MIC was over 200 µg/mL.

What about the MIC [12] of the same compound?
The MIC was 200 µg/mL (≈ 328 µM).

And the Activity [13]?
Its Activity is “inactive”.

What about the MIC [14] of the same compound?
Its MIC is 100 µg/mL (≈ 164 µM).

What about the MIC [15] of the same compound?
The MIC was 50 µg/mL (≈ 82 µM).

And the MIC [16]?
The MIC was 12.5 µg/mL (≈ 20.5 µM).

What about the MIC [17] of the same compound?
The MIC was 100 µg/mL (≈ 164 µM).

And the MIC [18]?
The MIC was 12.5 µg/mL (≈ 20.5 µM).

And the MIC [19]?
Its MIC is 100 µg/mL (≈ 164 µM).

What about the MIC [20] of the same compound?
The MIC was over 200 µg/mL.

Which MIC [21] does the source give for `CC(=O)OCC1=C(C(=O)O)N2C(=O)[C@@H](NC(=O)CCNC(=O)C3=C(O)C(CC(C)C)NC3=O)[C@H]2SC1` (some centres not stated) here?
Its MIC is 12.5 µg/mL (≈ 23.8 µM).

What about the MIC [22] of the same compound?
Its MIC is 3.13 µg/mL (≈ 5.97 µM).

What about the Ratio [23] of the same compound?
The Ratio was “>=16”.

And the MIC [6]?
Its MIC is over 200 µg/mL.

And the MIC [24]?
Its MIC is over 200 µg/mL.

And the MIC [25]?
The MIC was 200 µg/mL (≈ 381 µM).

And the MIC [26]?
Its MIC is 12.5 µg/mL (≈ 23.8 µM).

What about the MIC [8] of the same compound?
The MIC was over 200 µg/mL.

And the MIC [27]?
The MIC was over 200 µg/mL.

What about the Ratio [28] of the same compound?
The Ratio was “>=16”.

And the Ratio [29]?
Its Ratio is “>=16”.

What about the MIC [10] of the same compound?
Its MIC is 200 µg/mL (≈ 381 µM).

And the MIC [30]?
Its MIC is 6.25 µg/mL (≈ 11.9 µM).

What about the MIC [31] of the same compound?
The MIC was 25 µg/mL (≈ 47.7 µM).

What about the MIC [16] of the same compound?
The MIC was over 200 µg/mL.

And the MIC [17]?
The MIC was over 200 µg/mL.

And the MIC [32]?
The MIC was 6.25 µg/mL (≈ 11.9 µM).

What about the Ratio [33] of the same compound?
The Ratio was “>=16”.

And the MIC [34]?
Its MIC is over 200 µg/mL.

What about the MIC [20] of the same compound?
The MIC was over 200 µg/mL.

Which MIC [1] does the source give for `CO[C@@]1(NC(=O)CCCC(=O)C2=C(O)[C@@H](CCCNC(=N)N)NC2=O)C(=O)N2C(C(=O)O)=C(CSc3nnnn3C)CS[C@@H]21` here?
The MIC was 25 µg/mL (≈ 38.3 µM).

And the MIC [2]?
Its MIC is 6.25 µg/mL (≈ 9.58 µM).

And the MIC [3]?
Its MIC is 3.13 µg/mL (≈ 4.8 µM).

What about the MIC [4] of the same compound?
Its MIC is 12.5 µg/mL (≈ 19.2 µM).

And the MIC [5]?
The MIC was 100 µg/mL (≈ 153 µM).

What about the MIC [6] of the same compound?
Its MIC is 6.25 µg/mL (≈ 9.58 µM).

And the MIC [7]?
The MIC was 6.25 µg/mL (≈ 9.58 µM).

And the MIC [8]?
The MIC was over 200 µg/mL.

What about the MIC [9] of the same compound?
The MIC was 12.5 µg/mL (≈ 19.2 µM).

What about the MIC [10] of the same compound?
Its MIC is 6.25 µg/mL (≈ 9.58 µM).

What about the MIC [11] of the same compound?
The MIC was 3.13 µg/mL (≈ 4.8 µM).

What about the MIC [12] of the same compound?
The MIC was 3.13 µg/mL (≈ 4.8 µM).

And the Activity [13]?
Its Activity is “inactive”.

And the MIC [14]?
The MIC was 3.13 µg/mL (≈ 4.8 µM).

What about the MIC [15] of the same compound?
The MIC was 3.13 µg/mL (≈ 4.8 µM).

And the MIC [16]?
Its MIC is 6.25 µg/mL (≈ 9.58 µM).

What about the MIC [17] of the same compound?
Its MIC is 6.25 µg/mL (≈ 9.58 µM).

And the IC50 [35]?
The IC50 was over 200 µM.

And the MIC [18]?
The MIC was 3.13 µg/mL (≈ 4.8 µM).

What about the MIC [19] of the same compound?
The MIC was 3.13 µg/mL (≈ 4.8 µM).

And the IC50 [36]?
Its IC50 is over 200 µM.

And the MIC [20]?
The MIC was over 200 µg/mL.

`C=CC1=C(C(=O)O)N2C(=O)[C@@H](NC(=O)CCNC(=O)C3=C(O)C(CC(C)C)NC3=O)[C@H]2SC1` (some centres not stated) was tested. Which MIC [21] did it give?
Its MIC is 12.5 µg/mL (≈ 26.1 µM).

And the MIC [22]?
The MIC was 6.25 µg/mL (≈ 13.1 µM).

And the Ratio [23]?
The Ratio was 32.

And the MIC [6]?
The MIC was over 200 µg/mL.

What about the MIC [24] of the same compound?
The MIC was over 200 µg/mL.

What about the MIC [25] of the same compound?
The MIC was over 200 µg/mL.

What about the MIC [26] of the same compound?
The MIC was 6.25 µg/mL (≈ 13.1 µM).

What about the MIC [8] of the same compound?
Its MIC is over 200 µg/mL.

What about the MIC [27] of the same compound?
Its MIC is over 200 µg/mL.

And the Ratio [28]?
The Ratio was 32.

What about the Ratio [29] of the same compound?
The Ratio was 64.

And the MIC [10]?
Its MIC is 100 µg/mL (≈ 209 µM).

And the MIC [30]?
Its MIC is 3.13 µg/mL (≈ 6.54 µM).

What about the MIC [31] of the same compound?
The MIC was 6.25 µg/mL (≈ 13.1 µM).

What about the MIC [16] of the same compound?
Its MIC is over 200 µg/mL.

And the MIC [17]?
Its MIC is over 200 µg/mL.

What about the MIC [32] of the same compound?
Its MIC is 3.13 µg/mL (≈ 6.54 µM).

What about the Ratio [33] of the same compound?
The Ratio was 64.

What about the MIC [34] of the same compound?
The MIC was over 200 µg/mL.

And the MIC [20]?
Its MIC is over 200 µg/mL.
